The term IC50 denotes the point on the concentration scale where inhibition reaches its midpoint.

Data on one compound can be found in article PMC10517971, “An inverse agonist of orphan receptor GPR61 acts by a G protein-competitive allosteric mechanism” (Nature Communications, 2023).

The target in assay [1] is Human PDE11A4 (Homo sapiens, UniProt Q9HCR9). In words: Phosphodiesterase Assay (SPA). Type of assay: biochemical.
Assay [2] has as its target Human PED9A1 (Homo sapiens, UniProt O76083). Kind of assay: Phosphodiesterase Assay (SPA). Type of assay: biochemical.
Assay [3] concerns the target Cav1.2 (Homo sapiens, UniProt Q13936). Kind of assay: cell-based. An excerpt: 105 hERG, Nav1.5 and Cav1.2 Ion Channel Profiling
106 Ionic curr ents wer e evalu ated in the whole-cell con figuration using the Qube384 automated planar
107 patch clamp platform (Sophion Bioscience A/S, Ballerup, Denmark). […]
113 experiments, the ext ernal solution was composed of (in mM): 137.9 NaCl, 5.3 KCl, 0.49 MgCl2,
115 mOsM. The internal solution contained (in mM ): 27 CF, 112 CsCl, 2 MgCl2, 10 EGTA, 10
116 HEPES, 2 Na2ATP, pH 7.2, 305 mOsM. […]
123 at a rate of 0.05 Hz. Peak hERG current was measured during the ramp. The Cav1.2 current was
124 elicited by a voltage step to 0 mV for 150 ms from a holding potential of -40 mV. Voltage steps
125 were repeated at 0.05 Hz, and Cav1.2 amplitude was measured as the peak current at 0 mV. For
126 Nav1.5 current, from a holding potential of - 80 mV, a 200 ms prepulse to - 120 mV was used to
127 homogenize channel inactivation, followed by a 40 ms step to a test potential of - 15 mV.
128 Membrane potential was further depolarized to +40 mV for 200 ms to completely inactivate the
129 peak Nav1.5 current, followed by a ramp from +40 mV to - 80 mV (-1.2 mV/ms). This voltage
130 pattern was repeated at 0.1 Hz, with peak Nav1.5 defined as the maximum current during the step
131 to - 15 mV. All studies were conducted at 23° C.
132 Compounds were dissol ved and initially diluted in dimethyl sulfoxide (DMSO), with a final
133 dilution in external solution to generate final working concent rations. The final DMSO
134 concentration in all experiments was 0.33% (v/v).
135 For all protocols three vehicle periods each lasting 5 minutes were applied to establish a stable
136 baseline. For the standard protocol this was followed by the addition of increasing concentrations
137 of test compound, with each exposure lasting 5 minutes. For the “extended” protocol following
138 the three- vehi cle additional each well subsequentl y received a single concentration of compound.
139 This application was repeated three times for each well, via a flowthrough addition where the
140 solution was replaced wi th the same compound concentration with each addition. Each exposure
142 Patch clamp data were analyzed using Assay Software 6.4.72 (Sophion Bioscience A/S, Ballerup,
143 Denmark). Current amplitudes were determined by averaging the last 4 currents under each test
144 condition. The percentage inhibition of each compound was determined by taking the ratio of
145 current amplitude measured in the presence of various concentrations of the test compound
146 (ICompound) versus the vehicle control current (IVehicle):
148 A dose-response curve was generat ed and fit to the Hill equation by the Sophion Analyzer software
149 to determine an IC50 value for each compound. The minimum and the slope of the fit were free
150 fitted, with the top being fixed to 100% inhibition. […]

Chain of Cav1.2 (Q13936 whole entry): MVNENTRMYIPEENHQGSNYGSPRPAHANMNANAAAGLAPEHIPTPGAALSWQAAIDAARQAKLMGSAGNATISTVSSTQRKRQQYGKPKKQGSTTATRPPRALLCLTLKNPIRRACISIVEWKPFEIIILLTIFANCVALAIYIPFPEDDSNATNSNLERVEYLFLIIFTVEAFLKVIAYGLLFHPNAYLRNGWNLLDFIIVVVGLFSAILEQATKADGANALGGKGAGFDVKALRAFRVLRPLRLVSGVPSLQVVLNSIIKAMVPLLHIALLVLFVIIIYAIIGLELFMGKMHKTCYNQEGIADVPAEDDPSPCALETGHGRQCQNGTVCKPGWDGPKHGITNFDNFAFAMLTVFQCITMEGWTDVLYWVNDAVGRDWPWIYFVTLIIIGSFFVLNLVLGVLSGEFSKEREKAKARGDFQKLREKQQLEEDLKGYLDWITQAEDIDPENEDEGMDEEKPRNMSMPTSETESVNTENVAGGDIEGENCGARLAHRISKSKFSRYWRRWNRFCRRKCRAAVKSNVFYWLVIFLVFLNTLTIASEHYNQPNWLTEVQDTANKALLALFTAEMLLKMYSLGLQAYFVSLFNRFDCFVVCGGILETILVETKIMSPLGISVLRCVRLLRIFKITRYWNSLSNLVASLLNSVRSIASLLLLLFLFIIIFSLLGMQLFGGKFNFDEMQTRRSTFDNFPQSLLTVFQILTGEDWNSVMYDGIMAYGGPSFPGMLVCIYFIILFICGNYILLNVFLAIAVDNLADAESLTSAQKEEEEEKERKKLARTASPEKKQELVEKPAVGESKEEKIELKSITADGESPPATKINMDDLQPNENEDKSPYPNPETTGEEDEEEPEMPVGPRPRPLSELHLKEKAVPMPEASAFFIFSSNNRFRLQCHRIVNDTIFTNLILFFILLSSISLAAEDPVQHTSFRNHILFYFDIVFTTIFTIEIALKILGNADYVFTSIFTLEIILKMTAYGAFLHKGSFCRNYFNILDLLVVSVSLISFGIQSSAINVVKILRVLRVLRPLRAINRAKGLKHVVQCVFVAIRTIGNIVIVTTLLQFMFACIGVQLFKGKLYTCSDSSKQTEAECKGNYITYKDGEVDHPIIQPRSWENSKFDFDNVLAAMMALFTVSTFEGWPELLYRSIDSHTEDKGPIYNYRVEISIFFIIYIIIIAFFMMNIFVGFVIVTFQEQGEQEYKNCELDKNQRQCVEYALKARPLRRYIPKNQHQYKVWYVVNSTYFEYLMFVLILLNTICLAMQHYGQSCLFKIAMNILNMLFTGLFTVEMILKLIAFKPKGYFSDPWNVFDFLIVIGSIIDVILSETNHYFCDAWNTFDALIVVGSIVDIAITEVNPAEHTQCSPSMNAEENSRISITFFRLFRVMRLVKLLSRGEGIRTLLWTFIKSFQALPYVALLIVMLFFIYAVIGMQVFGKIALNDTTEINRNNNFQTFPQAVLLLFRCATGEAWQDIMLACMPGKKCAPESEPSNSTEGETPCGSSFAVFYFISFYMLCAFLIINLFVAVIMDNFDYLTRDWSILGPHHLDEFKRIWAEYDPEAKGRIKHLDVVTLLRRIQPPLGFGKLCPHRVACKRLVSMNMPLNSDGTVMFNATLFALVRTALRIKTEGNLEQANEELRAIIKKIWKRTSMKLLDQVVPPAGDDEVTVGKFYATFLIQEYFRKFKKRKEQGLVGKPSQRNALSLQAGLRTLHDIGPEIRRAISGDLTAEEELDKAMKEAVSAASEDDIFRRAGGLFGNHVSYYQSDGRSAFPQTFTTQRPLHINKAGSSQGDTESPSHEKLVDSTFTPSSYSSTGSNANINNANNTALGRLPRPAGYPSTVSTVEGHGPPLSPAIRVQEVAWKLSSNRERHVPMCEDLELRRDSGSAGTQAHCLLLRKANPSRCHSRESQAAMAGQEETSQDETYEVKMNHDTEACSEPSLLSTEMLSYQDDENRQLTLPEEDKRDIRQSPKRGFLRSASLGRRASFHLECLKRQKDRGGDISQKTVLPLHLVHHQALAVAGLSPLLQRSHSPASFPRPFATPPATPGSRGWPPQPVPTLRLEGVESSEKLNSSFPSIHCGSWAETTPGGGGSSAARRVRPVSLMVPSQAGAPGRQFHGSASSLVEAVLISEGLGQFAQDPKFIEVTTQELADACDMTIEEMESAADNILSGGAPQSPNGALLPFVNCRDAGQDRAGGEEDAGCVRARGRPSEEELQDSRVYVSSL
Chain of Cav1.2 (Q08289 whole entry partner): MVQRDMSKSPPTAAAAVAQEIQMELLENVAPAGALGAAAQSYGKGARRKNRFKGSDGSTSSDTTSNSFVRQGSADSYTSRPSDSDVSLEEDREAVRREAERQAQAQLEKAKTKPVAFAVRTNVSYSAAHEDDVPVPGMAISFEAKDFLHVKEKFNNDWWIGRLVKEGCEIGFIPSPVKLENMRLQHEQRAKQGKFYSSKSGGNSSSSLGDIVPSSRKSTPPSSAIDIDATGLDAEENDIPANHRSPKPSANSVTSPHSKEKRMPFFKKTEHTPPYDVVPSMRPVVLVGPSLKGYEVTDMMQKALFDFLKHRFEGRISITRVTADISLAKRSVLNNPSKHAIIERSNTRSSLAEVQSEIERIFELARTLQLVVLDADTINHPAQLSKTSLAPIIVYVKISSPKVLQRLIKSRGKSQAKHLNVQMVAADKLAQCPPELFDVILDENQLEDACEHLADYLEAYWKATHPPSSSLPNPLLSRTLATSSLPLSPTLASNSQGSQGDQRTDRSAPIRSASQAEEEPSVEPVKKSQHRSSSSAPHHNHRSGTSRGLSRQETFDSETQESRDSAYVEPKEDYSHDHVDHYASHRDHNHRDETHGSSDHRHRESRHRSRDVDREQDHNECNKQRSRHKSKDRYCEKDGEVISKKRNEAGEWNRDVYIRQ
Chain of Cav1.2 (P54289 25-956 partner limits assumed): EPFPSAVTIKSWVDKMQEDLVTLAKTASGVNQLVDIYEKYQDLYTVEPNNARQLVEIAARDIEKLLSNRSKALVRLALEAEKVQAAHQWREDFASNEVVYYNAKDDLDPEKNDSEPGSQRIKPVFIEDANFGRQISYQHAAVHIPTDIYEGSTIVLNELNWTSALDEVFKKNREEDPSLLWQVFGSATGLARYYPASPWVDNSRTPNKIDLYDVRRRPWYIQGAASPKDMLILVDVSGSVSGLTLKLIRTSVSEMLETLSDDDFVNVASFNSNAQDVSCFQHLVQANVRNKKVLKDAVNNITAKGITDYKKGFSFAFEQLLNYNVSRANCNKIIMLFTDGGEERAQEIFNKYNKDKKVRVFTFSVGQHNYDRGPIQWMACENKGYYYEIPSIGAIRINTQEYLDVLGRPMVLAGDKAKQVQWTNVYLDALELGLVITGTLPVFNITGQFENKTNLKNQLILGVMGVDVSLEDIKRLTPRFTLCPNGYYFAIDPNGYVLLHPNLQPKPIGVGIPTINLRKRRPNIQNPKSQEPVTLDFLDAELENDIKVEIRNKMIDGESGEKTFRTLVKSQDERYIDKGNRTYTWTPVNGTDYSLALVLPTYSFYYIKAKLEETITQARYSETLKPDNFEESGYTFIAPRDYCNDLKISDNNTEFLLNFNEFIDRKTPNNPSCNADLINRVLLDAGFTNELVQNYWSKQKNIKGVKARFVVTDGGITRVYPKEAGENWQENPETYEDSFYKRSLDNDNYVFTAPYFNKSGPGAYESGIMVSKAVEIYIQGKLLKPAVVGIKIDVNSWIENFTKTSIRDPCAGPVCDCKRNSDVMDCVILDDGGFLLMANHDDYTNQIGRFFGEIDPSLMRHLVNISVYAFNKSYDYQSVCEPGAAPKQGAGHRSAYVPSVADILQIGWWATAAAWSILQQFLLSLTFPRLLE
Chain of Cav1.2 (P54289 957-1103 partner limits assumed): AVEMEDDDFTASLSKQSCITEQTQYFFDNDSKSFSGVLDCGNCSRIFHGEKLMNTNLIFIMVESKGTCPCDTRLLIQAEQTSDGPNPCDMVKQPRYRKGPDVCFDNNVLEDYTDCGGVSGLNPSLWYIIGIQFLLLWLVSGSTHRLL
Chain of Human PDE11A4 (Q9HCR9 whole entry): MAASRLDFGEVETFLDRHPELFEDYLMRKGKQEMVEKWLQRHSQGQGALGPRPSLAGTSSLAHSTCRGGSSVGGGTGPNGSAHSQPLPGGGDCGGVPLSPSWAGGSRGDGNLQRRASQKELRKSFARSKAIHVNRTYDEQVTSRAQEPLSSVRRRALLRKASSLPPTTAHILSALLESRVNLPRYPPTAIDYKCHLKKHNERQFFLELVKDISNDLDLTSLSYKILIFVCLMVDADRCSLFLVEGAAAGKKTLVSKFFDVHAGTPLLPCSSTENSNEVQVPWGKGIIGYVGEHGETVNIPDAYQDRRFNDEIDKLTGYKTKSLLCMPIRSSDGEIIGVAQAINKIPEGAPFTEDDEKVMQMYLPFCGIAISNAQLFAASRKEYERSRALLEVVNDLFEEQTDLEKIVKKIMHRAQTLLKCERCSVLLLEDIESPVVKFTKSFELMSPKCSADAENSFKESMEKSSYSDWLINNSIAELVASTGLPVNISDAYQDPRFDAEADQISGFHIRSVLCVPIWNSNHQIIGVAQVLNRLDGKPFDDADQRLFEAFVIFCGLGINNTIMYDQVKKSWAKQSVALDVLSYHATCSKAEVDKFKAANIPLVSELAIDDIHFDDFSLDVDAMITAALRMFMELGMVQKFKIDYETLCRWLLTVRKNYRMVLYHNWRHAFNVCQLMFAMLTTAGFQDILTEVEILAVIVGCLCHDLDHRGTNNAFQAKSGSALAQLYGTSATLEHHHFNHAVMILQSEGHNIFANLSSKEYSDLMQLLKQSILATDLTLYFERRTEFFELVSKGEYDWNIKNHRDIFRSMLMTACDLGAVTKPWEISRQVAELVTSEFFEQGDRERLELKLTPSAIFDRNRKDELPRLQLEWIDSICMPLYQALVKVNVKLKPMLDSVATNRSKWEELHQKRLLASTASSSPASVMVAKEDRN

As to `CCOc1cc(C)nc(N(CCOC)S(=O)(=O)c2ccc(NCc3c(F)cncc3F)nc2OC)n1` [Compound 1], the IC50 in assay [1] was over 40 µM; in assay [2], over 200 µM; in assay [3] (IC50 (nM), Calcium Channel Cav1 (so in the source), standard protocol) it was 44800 nM; in assay [3] (Ion Channel Extended Protocol IC50 (nM), Period 1st, Cav1.2, extended protocol, 1st period), 21100 nM; in assay [3] (Ion Channel Extended Protocol IC50 (nM), Period 2nd, Cav1.2, extended protocol, 2nd period) it was 10700 nM; in assay [3] (Ion Channel Extended Protocol IC50 (nM), Period 3rd, Cav1.2, extended protocol, 3rd period), 5930 nM.
